Reference: US20230339890A1, “AMINO ALCOHOL COMPOUNDS AND USES THEREOF” (Kineta, Inc., priority 2020, published 2023)
pIC50: −log10 of the molar value.

Target: Recombinant human CYP51A1 (lanosterol-14a-demethylase) (Homo sapiens (Human), UniProt Q16850)
Assay: Inhibition of CYP51A1, fluorescent substrate BOMCC
Assay type: biochemical
Details: recombinant human CYP51A1 coexpressed with CYP reductase in bacterial membranes, 8-point concentration-response, read-out: CYP51 IC50
Text: Method: Recombinant human CYP51A1 (lanosterol-14a-demethylase) enzyme was coexpressed with CYP reductase in bacterial membranes and the fluorescent substrate BOMCC (a nonnatural substrate that causes increases in fluorescence upon CYP51A1-dependent demethylation) was used to obtain 8-point dose concentration-response curves for each compound.

Recombinant human CYP51A1 (lanosterol-14a-demethylase), sequence (Q16850 whole entry): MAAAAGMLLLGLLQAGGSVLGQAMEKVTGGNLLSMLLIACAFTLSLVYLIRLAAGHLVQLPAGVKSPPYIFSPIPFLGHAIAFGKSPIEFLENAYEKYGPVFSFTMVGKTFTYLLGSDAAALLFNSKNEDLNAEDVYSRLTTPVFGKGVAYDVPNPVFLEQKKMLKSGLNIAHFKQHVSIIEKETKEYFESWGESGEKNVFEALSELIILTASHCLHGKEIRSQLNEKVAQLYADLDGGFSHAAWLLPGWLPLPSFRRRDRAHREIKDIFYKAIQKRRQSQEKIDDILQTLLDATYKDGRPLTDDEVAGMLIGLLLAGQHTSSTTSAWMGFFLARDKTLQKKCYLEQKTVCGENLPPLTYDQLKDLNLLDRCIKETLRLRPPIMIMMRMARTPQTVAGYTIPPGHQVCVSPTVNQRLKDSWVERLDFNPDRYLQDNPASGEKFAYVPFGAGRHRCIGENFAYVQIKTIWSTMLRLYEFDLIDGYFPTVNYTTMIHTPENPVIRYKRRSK

| pIC50 | Structure (SMILES) |
| --- | --- |
| ≥ 7.00 | CCCN(C[C@@H](O)c1cccnc1)C(=O)Cc1ccc(OC(F)(F)F)c(Cl)c1 [compound 21, 2-[3-chloro-4-(trifluoromethoxy)phenyl]-N-[(2S)-2-hydroxy-2-(3-pyridyl)ethyl]-N-propyl-acetamide] |
| 6.00 to 7.00 | CCC(=O)N(C[C@@H](O)c1cccnc1)C1Cc2cc(Cl)c(Cl)cc2C1 [compound 22, N-(5,6-dichloroindan-2-yl)-N-[(2S)-2-hydroxy-2-(3-pyridyl)ethyl]propanamide] |
| ≥ 7.00 | CCC(=O)N(C[C@H](O)c1cccnc1)C1Cc2cc(Cl)c(Cl)cc2C1 [compound 23, N-(5,6-dichloroindan-2-yl)-N-[(2R)-2-hydroxy-2-(3-pyridyl)ethyl]propanamide] |
| 6.00 to 7.00 | CCCN(C[C@@H](O)c1cccnc1)C(=O)Cc1ccc(Cl)c(C#N)c1 [compound 24, 2-(4-chloro-3-cyano-phenyl)-N-[(2S)-2-hydroxy-2-(3-pyridyl)ethyl]-N-propyl-acetamide] |
| 6.00 to 7.00 | O=C(Cc1ccc(Cl)c(Cl)c1)N(CC1COC1)C[C@@H](O)c1cccnc1 [compound 25, 2-(3,4-dichlorophenyl) -N-[(2S)-2-hydroxy-2-(3-pyridyl)ethyl]-N-(oxetan-3-ylmethyl)acetamide] |
| 6.00 to 7.00 | O=C(Cc1ccc(Cl)c(Cl)c1)N(C[C@@H](O)c1cccnc1)C1COC1 [compound 26, 2-(3,4-dichlorophenyl) -N-[(2S)-2-hydroxy-2-(3-pyridyl)ethyl]-N-(oxetan-3-yl)acetamide] |
| ≥ 7.00 | CC1(CN(C[C@@H](O)c2cccnc2)C(=O)Cc2ccc(Cl)c(Cl)c2)CC1 [compound 27, 2-(3,4-dichlorophenyl) -N-[(2S)-2-hydroxy-2-(3-pyridyl)ethyl]-N-[(1-methylcyclopropyl)methyl]acetamide] |
| < 6.00 | CC(C)N(C[C@@H](O)c1cccnc1)C(=O)Nc1ccc(Cl)c(Cl)c1 [compound 29, 3-(3,4-dichlorophenyl)-1-[(2S)-2-hydroxy-2-(3-pyridyl)ethyl]-1-isopropyl-urea] |
| ≥ 7.00 | CCCN(CC(O)c1cccnc1)C(=O)Cc1ccc(Cl)cc1F (stereo not shown) [compound 31, 2-(4-chloro-2-fluoro-phenyl)-N-[2-hydroxy-2-(3-pyridyl)ethyl]-N-propyl-acetamide] |
| < 6.00 | NCCCCCN(CC(O)c1cccnc1)C(=O)Cc1ccc(Cl)c(Cl)c1 (stereo not shown) [compound 33, N-(5-aminopentyl)-2-(3,4-dichlorophenyl)-N-[2-hydroxy-2-(3-pyridyl)ethyl]acet amide] |
| 6.00 to 7.00 | CCC(=O)N(CC1Cc2cc(Cl)c(Cl)cc2C1)C[C@@H](O)c1cccnc1 [compound 34, N-[(5,6-dichloroindan-2-yl)methyl]-N-[(2S)-2-hydroxy-2-(3-pyridyl)ethyl]propanamide] |
| < 6.00 | CCCN(CC(O)c1cncc(Cl)c1)C(=O)Cc1ccc(Cl)c(Cl)c1 (stereo not shown) [compound 37, N-[2-(5-chloro-3-pyridyl)-2-hydroxy-ethyl]-2-(3,4-dichlorophenyl)-N-propyl-acetamide] |
| < 6.00 | CC(C)(O)CN(CC(O)c1cccnc1)C(=O)Cc1ccc(Cl)c(Cl)c1 (stereo not shown) [compound 43, 2-(3,4-dichlorophenyl)-N-(2-hydroxy-2-methylpropyl)-N-[2-hydroxy-2-(3-pyridyl)ethyl]acetamide] |
| < 6.00 | CCCN(C[C@@H](O)c1cccnc1)C(=O)Cc1cncc(Cl)c1 [compound 44, 2-(5-chloro-3-pyridyl)-N-[(2S)-2-hydroxy-2-(3-pyridyl)ethyl]-N-propyl-acetamide] |
| ≥ 7.00 | CCCN(C[C@@H](O)c1cccnc1)C(=O)Cc1ccc(C(F)F)c(F)c1 [compound 50, 2-[4-(difluoromethyl)-3-fluoro-phenyl]-N-[(2S)-2-hydroxy-2-(3-pyridyl)ethyl]-N-propyl-acetamide] |
| < 6.00 | CCCN(C[C@@H](O)c1cccnc1)C(=O)Cc1cncc(C(F)(F)F)c1 [compound 59, N-[(2S)-2-hydroxy-2-(3-pyridyl)ethyl]-N-propyl-2-[5-(trifluoromethyl)-3-pyridyl]acetamide] |
| < 6.00 | CCCN(CC(O)c1cccnc1)C(=O)Cc1ccc(Cl)c(C)n1 (stereo not shown) [compound 63, 2-(5-chloro-6-methyl-2-pyridyl)-N-[2-hydroxy-2-(3-pyridyl)ethyl]-N-propyl-acetamide] |
| < 6.00 | O=C(Cc1ccc(F)c(Cl)c1)N(CC1COC1)C[C@@H](O)c1cccnc1 [compound 65, 2-(3-chloro-4-fluoro-phenyl)-N-[(2S)-2-hydroxy-2-(3-pyridyl)ethyl]-N-(oxetan-3-ylmethyl)acetamide] |
| ≥ 7.00 | CCCN(C[C@@H](O)c1cccnc1)C(=O)Cc1ccc2cc(Cl)sc2c1 [compound 67, 2-(2-chlorobenzothiophen-6-yl)-N-[(2S)-2-hydroxy-2-(3-pyridyl)ethyl]-N-propyl-acetamide] |
| ≥ 7.00 | O=C(Cc1ccc(Cl)c(Cl)c1)N(C[C@@H](O)c1cccnc1)C1CCC1 [compound 71, N-cyclobutyl-2-(3,4-dichlorophenyl)-N-[(2S)-2-hydroxy-2-(3-pyridyl)ethyl]acetamide] |

Second part, the compound before the results:

| Structure (SMILES) | pIC50 |
| --- | --- |
| COC(=O)N(CCc1ccc(C(F)(F)F)nc1)CC(O)c1cccnc1 (stereo not shown) [compound 28, methyl N-[2-hydroxy-2-(3-pyridyl)ethyl]-N-[2-[6-(trifluoromethyl)-3-pyridyl]ethyl]carbamate] | < 6.00 |
| CCCN(CC(O)c1cccnn1)C(=O)Cc1ccc(C(F)(F)F)nc1 (stereo not shown) [compound 32, N-(2-hydroxy-2-pyridazin-3-yl-ethyl)-N-propyl-2-[6-(trifluoromethyl)-3-pyridyl]acetamide] | 6.00 to 7.00 |
| CCCN(C[C@@H](O)c1cccnc1)C(=O)Cc1ccc(C(F)(F)F)nn1 [compound 38, N-[(2S)-2-hydroxy-2-(3-pyridyl)ethyl]-N-propyl-2-[6-(trifluoromethyl)pyridazin-3-yl]acetamide] | 6.00 to 7.00 |
| CCCN(C[C@@H](O)c1cccnc1)C(=O)Cc1ccc(C#N)nc1 [compound 39, 2-(6-cyano-3-pyridyl)-N-[(2S)-2-hydroxy-2-(3-pyridyl)ethyl]-N-propyl-acetamide] | < 6.00 |
| CCCN(C[C@@H](O)c1cccnc1)C(=O)Cc1ccc2ncsc2c1 [compound 40, 2-(1,3-benzothiazol-6-yl)-N-[(2S)-2-hydroxy-2-(3-pyridyl)ethyl]-N-propyl-acetamide] | 6.00 to 7.00 |
| CCCN(C[C@@H](O)c1cccnc1)C(=O)Cc1ccc(OC(F)(F)F)cn1 [compound 45, N-[(2S)-2-hydroxy-2-(3-pyridyl)ethyl]-N-propyl-2-[5-(trifluoromethoxy)-2-pyridyl]acetamide] | ≥ 7.00 |
| CCCN(CC(O)c1cncc(Br)c1)C(=O)Cc1ccc(C(F)(F)F)nc1 (stereo not shown) [compound 46, N-[2-(5-bromo-3-pyridyl)-2-hydroxyethyl]-N-propyl-2-[6-(trifluoromethyl)-3-pyridyl]acetamide] | < 6.00 |
| CCCN(C[C@@H](O)c1cccnc1)C(=O)Cc1ccc2scnc2c1 [compound 47, 2-(1,3-benzothiazol-5-yl)-N-[(2S)-2-hydroxy-2-(3-pyridyl)ethyl]-N-propyl-acetamide] | 6.00 to 7.00 |
| CCCN(CC(O)c1cncc(C(C)=O)c1)C(=O)Cc1ccc(C(F)(F)F)nc1 (stereo not shown) [compound 48, N-[2-(5-acetyl-3-pyridyl)-2-hydroxy-ethyl]-N-propyl-2-[6-(trifluoromethyl)-3-pyridyl]acetamide] | < 6.00 |
| CCC(=O)N(CCc1ccc(C(F)(F)F)nc1)CC(O)c1cccnn1 (stereo not shown) [compound 49] | < 6.00 |
| COC(=O)N(CCc1ccc(C(F)(F)F)nc1)CC(O)c1cccnn1 (stereo not shown) [compound 51] | < 6.00 |
| CCCN(CC(O)c1cccnn1)C(=O)Cc1ccc(C#N)c(Cl)c1 (stereo not shown) [compound 52, 2-(3-chloro-4-cyanophenyl)-N-(2-hydroxy-2-pyridazin-3-yl-ethyl)-N-propyl-acetamide] | 6.00 to 7.00 |
| CCCN(CC(O)c1cncc(C(C)(C)O)c1)C(=O)Cc1ccc(C(F)(F)F)nc1 (stereo not shown) [compound 55, N-[2-hydroxy-2-[5-(1-hydroxy-1-methyl-ethyl)-3-pyridyl]ethyl]-N-propyl-2-[6-(trifluoromethyl)-3-pyridyl]acetamide] | < 6.00 |
| CC(=O)N1CCC(CN(C[C@@H](O)c2cccnc2)C(=O)Cc2ccc(C(F)(F)F)nc2)CC1 [compound 57, N-[(1-acetyl-4-piperidyl)methyl]-N-[(2S)-2-hydroxy-2-(3-pyridyl)ethyl]-2-[6-(trifluoromethyl)-3-pyridyl]acetamide] | < 6.00 |
| CN1CCC(CN(C[C@@H](O)c2cccnc2)C(=O)Cc2ccc(C(F)(F)F)nc2)CC1 [compound 58, N-[(2S)-2-hydroxy-2-(3-pyridyl)ethyl]-N-[(1-methyl-4-piperidyl)methyl]-2-[6-(trifluoromethyl)-3-pyridyl]acetamide] | < 6.00 |
| O=C(Cc1ccc(C(F)(F)F)nc1)N(CC(O)c1cccnn1)C1CCC1 (stereo not shown) [compound 60, N-cyclobutyl-N-(2-hydroxy-2-pyridazin-3-yl-ethyl)-2-[6-(trifluoromethyl)-3-pyridyl]acetamide] | 6.00 to 7.00 |
| O=C(Cc1ccc(C(F)(F)F)nc1)N(Cc1ccccc1)C[C@@H](O)c1cccnc1 [compound 64, (S)-N-benzyl-N-(2-hydroxy-2-(pyridin-3-yl)ethyl)-2-(6-(trifluoromethyl)pyridin-3-yl)acetamide] | ≥ 7.00 |
| O=C(Cc1ccc(OC(F)(F)F)cn1)N(CC1COC1)C[C@@H](O)c1cccnc1 [compound 66, N-[(2S)-2-hydroxy-2-(3-pyridyl)ethyl]-N-(oxetan-3-ylmethyl)-2-[5-(trifluoromethoxy)-2-pyridyl]acetamide] | 6.00 to 7.00 |
| CC(C)N(C[C@@H](O)c1cccnc1)C(=O)Cc1ccc(C(F)(F)F)nc1 [compound 72, (S)-N-(2-hydroxy-2-(pyridin-3-yl)ethyl)-N-isopropyl-2-(6-(trifluoromethyl)pyridin-3-yl)acetamide] | 6.00 to 7.00 |
| O=C(Cc1ccc(C(F)(F)F)nc1)N(CC1COC1)C[C@@H](O)c1cccnc1 [compound 73, N-[(2S)-2-hydroxy-2-(3-pyridyl)ethyl]-N-(oxetan-3-ylmethyl)-2-[6-(trifluoromethyl)-3-pyridyl]acetamide] | 6.00 to 7.00 |
